Reference: patent US20100298141A1, “SUBSTITUTED PYRIDINE N-OXIDE HERBICIDES” (E. I. DU PONT DE NEMOURS AND COMPANY, priority 2007, published 2010)

Legend:
[1] = system: barnyardgrass; assay: Test A pre-/postemergence greenhouse test; format: in vivo, Echinochloa crus-galli; settings: for Plant response rating, Barnyardgrass: 0 to 100 scale where 0 is no effect and 100 is complete control; for Barnyardgrass plant response rating: 0 to 100 scale
Summary of the method: (§1)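 Visual injury ratings against untreated controls, taken roughly ten days after treatment in greenhouse. Plants were sprayed postemergence at one- to two-leaf stage (2–10 cm tall); at the same time, seeded loam/sand soil received a directed preemergence spray. Formulation: non-phytotoxic solvent mixture with surfactant.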

[2] = system: crabgrass; assay: Test A pre-/postemergence greenhouse test; format: in vivo, Digitaria sanguinalis; settings: for Plant response rating, Crabgrass, Large: 0 to 100 scale where 0 is no effect and 100 is complete control; for Crabgrass, Large plant response rating: 0 to 100 scale
Summary of the method: as §1

[3] = system: giant foxtail; assay: Test A pre-/postemergence greenhouse test; format: in vivo, Setaria faberi; settings: for Plant response rating, Foxtail, Giant: 0 to 100 scale where 0 is no effect and 100 is complete control; for Foxtail, Giant plant response rating: 0 to 100 scale
Summary of the method: as §1

[4] = system: morningglory; assay: Test A pre-/postemergence greenhouse test; format: in vivo, Ipomoea spp.; settings: for Plant response rating, Morningglory: 0 to 100 scale where 0 is no effect and 100 is complete control; for Morningglory plant response rating: 0 to 100 scale
Summary of the method: as §1

[5] = system: redroot pigweed; assay: Test A pre-/postemergence greenhouse test; format: in vivo, Amaranthus retroflexus; settings: for Plant response rating, Pigweed: 0 to 100 scale where 0 is no effect and 100 is complete control; for Pigweed plant response rating: 0 to 100 scale
Summary of the method: as §1

[6] = system: velvetleaf; assay: Test A pre-/postemergence greenhouse test; format: in vivo, Abutilon theophrasti; settings: for Plant response rating, Velvetleaf: 0 to 100 scale where 0 is no effect and 100 is complete control; for Velvetleaf plant response rating: 0 to 100 scale
Summary of the method: as §1

[7] = system: wheat; assay: Test A pre-/postemergence greenhouse test; format: in vivo, Triticum aestivum; settings: for Plant response rating, Wheat: 0 to 100 scale where 0 is no effect and 100 is complete control; for Wheat plant response rating: 0 to 100 scale
Summary of the method: as §1

[8] = system: corn; assay: Test A pre-/postemergence greenhouse test; format: in vivo, Zea mays; settings: for Plant response rating, Corn: 0 to 100 scale where 0 is no effect and 100 is complete control; for Corn plant response rating: 0 to 100 scale
Summary of the method: as §1

[9] = system: rice; assay: Test C flooded paddy test; format: in vivo, Oryza sativa; settings: Flood
Summary of the method: (§2)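 Pots were flooded to 3 cm above the soil surface at treatment, compound applied directly to the paddy water, and that depth held throughout. Plants were kept in a greenhouse for 13 to 15 days, then visually rated against untreated controls.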

[10] = system: umbrella sedge; assay: Test C flooded paddy test; format: in vivo, Cyperus difformis; settings: Flood
Summary of the method: as §2

[11] = system: duck salad; assay: Test C flooded paddy test; format: in vivo, Heteranthera limosa; settings: Flood
Summary of the method: as §2

[12] = system: barnyardgrass; assay: Test C flooded paddy test; format: in vivo, Echinochloa crus-galli; settings: Flood
Summary of the method: as §2

[13] = Postemergence, 500 g ai/ha, 0 is no effect, 100 is complete control
[14] = Preemergence, 125 g ai/ha, 0 no effect, 100 complete control
[15] = 62 g ai/ha, scale 0 to 100 (0 no effect, 100 complete control)
[16] = 250 g ai/ha, scale 0 to 100, 0 no effect, 100 complete control, 13 to 15 days
[17] = Postemergence, 125 g ai/ha, 0 is no effect, 100 is complete control
[18] = 31 g ai/ha, scale 0 to 100 (0 no effect, 100 complete control)
[19] = 62 g ai/ha, scale 0 to 100, 0 no effect, 100 complete control, 13 to 15 days
[20] = 125 g ai/ha, scale 0 to 100, 0 no effect, 100 complete control, 13 to 15 days
[21] = Preemergence, 500 g ai/ha, 0 no effect, 100 complete control

With `Cn1nc(C(F)(F)F)c(C[S+]([O-])c2cc(C(C)(C)C)cc[n+]2[O-])c1OCC(F)(F)F` (racemic) [Compound 61] the “Plant response rating, Barnyardgrass” value ([1]; Postemergence, 125 g ai/ha) was 30, the “Barnyardgrass plant response rating” value [1, 13] was 80 and the “Barnyardgrass plant response rating” value [1, 14] was 0. The “Plant response rating, Barnyardgrass” value ([1]; Preemergence, 500 g ai/ha) was 100, the “Plant response rating, Crabgrass, Large” value ([2]; Postemergence, 125 g ai/ha) was 30 and the “Crabgrass, Large plant response rating” value [2, 13] was 60. The “Crabgrass, Large plant response rating” value [2, 14] was 70, the “Plant response rating, Crabgrass, Large” value ([2]; Preemergence, 500 g ai/ha) was 100 and the “Plant response rating, Foxtail, Giant” value ([3]; Postemergence, 125 g ai/ha) was 50. The “Foxtail, Giant plant response rating” value [3, 13] was 70, the “Foxtail, Giant plant response rating” value [3, 14] was 100 and the “Plant response rating, Foxtail, Giant” value ([3]; Preemergence, 500 g ai/ha) was 100. For the same molecule, the “Plant response rating, Morningglory” value ([4]; Postemergence, 125 g ai/ha) was 0, the “Morningglory plant response rating” value [4, 13] was 70 and the “Morningglory plant response rating” value [4, 14] was 60. The “Plant response rating, Morningglory” value ([4]; Preemergence, 500 g ai/ha) was 100, the “Plant response rating, Pigweed” value ([5]; Postemergence, 125 g ai/ha) was 40 and the “Pigweed plant response rating” value [5, 13] was 60. For the same molecule, the “Pigweed plant response rating” value [5, 14] was 80, the “Plant response rating, Pigweed” value ([5]; Preemergence, 500 g ai/ha) was 100 and the “Plant response rating, Velvetleaf” value ([6]; Postemergence, 125 g ai/ha) was 0. The “Velvetleaf plant response rating” value [6, 13] was 70, the “Velvetleaf plant response rating” value [6, 14] was 0 and the “Plant response rating, Velvetleaf” value ([6]; Preemergence, 500 g ai/ha) was 100. The “Plant response rating, Wheat” value ([7]; Postemergence, 125 g ai/ha) was 50, the “Wheat plant response rating” value [7, 13] was 60 and the “Wheat plant response rating” value [7, 14] was 50. For the same molecule, the “Plant response rating, Wheat” value ([7]; Preemergence, 500 g ai/ha) was 100, the “Plant response rating, Corn” value ([8]; Postemergence, 125 g ai/ha) was 30 and the “Corn plant response rating” value [8, 13] was 70. The “Corn plant response rating” value [8, 14] was 0, the “Plant response rating, Corn” value ([8]; Preemergence, 500 g ai/ha) was 50 and the “Plant response rating, Rice” value [9, 15] was 20. For the same molecule, the “Plant response rating, Rice” value [9, 16] was 50, the “Plant response rating, Sedge, Umbrella” value [10, 15] was 0 and the “Plant response rating, Sedge, Umbrella” value [10, 16] was 100. For the same molecule, the “Plant response rating, Ducksalad” value [11, 15] was 0, the “Plant response rating, Ducksalad” value [11, 16] was 90 and the “Plant response rating, Barnyardgrass” value [12, 15] was 30. For the same molecule, the “Plant response rating, Barnyardgrass” value [12, 16] was 30.
For `Cn1nc(C(F)(F)F)c(CS(=O)(=O)c2cc(Br)cc[n+]2[O-])c1Cl` [Compound 32], the “Barnyardgrass plant response rating” value [1, 17] was 0, the “Barnyardgrass plant response rating” value [1, 13] was 30 and the “Barnyardgrass plant response rating” value [1, 14] was 0. The “Plant response rating, Barnyardgrass” value ([1]; Preemergence, 500 g ai/ha) was 60, the “Crabgrass, Large plant response rating” value [2, 17] was 0 and the “Crabgrass, Large plant response rating” value [2, 13] was 0. For the same molecule, the “Crabgrass, Large plant response rating” value [2, 14] was 0, the “Plant response rating, Crabgrass, Large” value ([2]; Preemergence, 500 g ai/ha) was 0 and the “Foxtail, Giant plant response rating” value [3, 17] was 0. For the same molecule, the “Foxtail, Giant plant response rating” value [3, 13] was 0, the “Foxtail, Giant plant response rating” value [3, 14] was 0 and the “Plant response rating, Foxtail, Giant” value ([3]; Preemergence, 500 g ai/ha) was 70. The “Morningglory plant response rating” value [4, 17] was 0, the “Morningglory plant response rating” value [4, 13] was 10 and the “Morningglory plant response rating” value [4, 14] was 0. For the same molecule, the “Plant response rating, Morningglory” value ([4]; Preemergence, 500 g ai/ha) was 0, the “Pigweed plant response rating” value [5, 17] was 0 and the “Pigweed plant response rating” value [5, 13] was 0. The “Pigweed plant response rating” value [5, 14] was 0, the “Plant response rating, Pigweed” value ([5]; Preemergence, 500 g ai/ha) was 100 and the “Velvetleaf plant response rating” value [6, 17] was 0. The “Velvetleaf plant response rating” value [6, 13] was 0, the “Velvetleaf plant response rating” value [6, 14] was 0 and the “Plant response rating, Velvetleaf” value ([6]; Preemergence, 500 g ai/ha) was 0. The “Wheat plant response rating” value [7, 17] was 0, the “Wheat plant response rating” value [7, 13] was 0 and the “Wheat plant response rating” value [7, 14] was 0. For the same molecule, the “Plant response rating, Wheat” value ([7]; Preemergence, 500 g ai/ha) was 30, the “Corn plant response rating” value [8, 17] was 0 and the “Corn plant response rating” value [8, 13] was 0. For the same molecule, the “Corn plant response rating” value [8, 14] was 0, the “Plant response rating, Corn” value ([8]; Preemergence, 500 g ai/ha) was 20 and the “Plant response rating, Rice” value [9, 18] was 0. For the same molecule, the “Plant response rating, Rice” value [9, 19] was 0, the “Plant response rating, Rice” value [9, 20] was 0 and the “Plant response rating, Rice” value [9, 16] was 0. For the same molecule, the “Plant response rating, Sedge, Umbrella” value [10, 18] was 0, the “Plant response rating, Sedge, Umbrella” value [10, 19] was 0 and the “Plant response rating, Sedge, Umbrella” value [10, 20] was 0. The “Plant response rating, Sedge, Umbrella” value [10, 16] was 50, the “Plant response rating, Ducksalad” value [11, 18] was 0 and the “Plant response rating, Ducksalad” value [11, 19] was 0. For the same molecule, the “Plant response rating, Ducksalad” value [11, 20] was 0, the “Plant response rating, Ducksalad” value [11, 16] was 50 and the “Plant response rating, Barnyardgrass” value [12, 18] was 0. The “Plant response rating, Barnyardgrass” value [12, 19] was 0, the “Plant response rating, Barnyardgrass” value [12, 20] was 0 and the “Plant response rating, Barnyardgrass” value [12, 16] was 0.
`Cc1cc[n+]([O-])c([S+]([O-])Cc2c(C(F)(F)F)nn(C)c2OCC(F)(F)C(F)(F)F)c1` (centres unmarked) [Compound 90] was tested, and the “Plant response rating, Barnyardgrass” value ([1]; Postemergence, 125 g ai/ha) was 0, the “Barnyardgrass plant response rating” value [1, 13] was 60 and the “Barnyardgrass plant response rating” value [1, 14] was 0. The “Plant response rating, Barnyardgrass” value ([1]; Preemergence, 500 g ai/ha) was 100, the “Plant response rating, Crabgrass, Large” value ([2]; Postemergence, 125 g ai/ha) was 20 and the “Crabgrass, Large plant response rating” value [2, 13] was 80. The “Crabgrass, Large plant response rating” value [2, 14] was 40, the “Plant response rating, Crabgrass, Large” value ([2]; Preemergence, 500 g ai/ha) was 90 and the “Plant response rating, Foxtail, Giant” value ([3]; Postemergence, 125 g ai/ha) was 50. The “Foxtail, Giant plant response rating” value [3, 13] was 80, the “Foxtail, Giant plant response rating” value [3, 14] was 70 and the “Plant response rating, Foxtail, Giant” value ([3]; Preemergence, 500 g ai/ha) was 100. For the same molecule, the “Plant response rating, Morningglory” value ([4]; Postemergence, 125 g ai/ha) was 20, the “Morningglory plant response rating” value [4, 13] was 90 and the “Morningglory plant response rating” value [4, 14] was 0. The “Plant response rating, Morningglory” value ([4]; Preemergence, 500 g ai/ha) was 60, the “Plant response rating, Pigweed” value ([5]; Postemergence, 125 g ai/ha) was 10 and the “Pigweed plant response rating” value [5, 13] was 30. For the same molecule, the “Pigweed plant response rating” value [5, 14] was 0, the “Plant response rating, Pigweed” value ([5]; Preemergence, 500 g ai/ha) was 40 and the “Plant response rating, Velvetleaf” value ([6]; Postemergence, 125 g ai/ha) was 0. The “Velvetleaf plant response rating” value [6, 13] was 80, the “Velvetleaf plant response rating” value [6, 14] was 0 and the “Velvetleaf plant response rating” value [6, 21] was 70. For the same molecule, the “Plant response rating, Wheat” value ([7]; Postemergence, 125 g ai/ha) was 0, the “Wheat plant response rating” value [7, 13] was 70 and the “Wheat plant response rating” value [7, 14] was 0. The “Wheat plant response rating” value [7, 21] was 80, the “Plant response rating, Corn” value ([8]; Postemergence, 125 g ai/ha) was 30 and the “Corn plant response rating” value [8, 13] was 50. The “Corn plant response rating” value [8, 14] was 0, the “Plant response rating, Corn” value ([8]; Preemergence, 500 g ai/ha) was 50 and the “Plant response rating, Rice” value [9, 15] was 0. For the same molecule, the “Plant response rating, Rice” value [9, 16] was 0, the “Plant response rating, Sedge, Umbrella” value [10, 15] was 0 and the “Plant response rating, Sedge, Umbrella” value [10, 16] was 70. The “Plant response rating, Ducksalad” value [11, 15] was 0, the “Plant response rating, Ducksalad” value [11, 16] was 20 and the “Plant response rating, Barnyardgrass” value [12, 15] was 0. For the same molecule, the “Plant response rating, Barnyardgrass” value [12, 16] was 0.
